This note sets out measurements from ChEMBL document CHEMBL1201862, “PubChem BioAssay data set” (2004).

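Dose response: 5 concentrations. Exposure: 48 h. Format: 96-well plates. Endpoint: linear interpolation; highest concentration if not reached. GI50 marks 50% less growth.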 Active and inactive are the calls of the source. Rule as the data show it: active = GI50 up to about 1.1 µM and inactive = higher.

Among the test systems are SNB-19; MCF7; Malme-3M; HCT-116; SF-268; OVCAR-3; MDA-MB-231; ACHN; SN12C; EKVX; MDA-N; OVCAR-4; HL-60; SF-295; OVCAR-8; SF-539; U-251; A498; HCC 2998.
Common to all, as to test: NCI anticancer screen, dose series, 48 h

As for `[N-]=[N+]=NC1(c2ccccc2)C(=O)c2cccc3c4ccccc4n(c23)C1=O` (stereo not given), the GI50 in the assay with SNB-19 was > 100 µM (inactive); in the assay with MCF7 it was 54 µM (inactive); in the assay with Malme-3M it was > 100 µM (inactive); in the assay on HCT-116, 84.3 µM (inactive); in the assay on SF-268 it was > 100 µM (inactive); in the assay on OVCAR-3, 46.3 µM (inactive). The GI50 in the assay with MDA-MB-231 is > 100 µM (inactive); with ACHN it was > 100 µM (inactive); in the assay with SN12C, > 100 µM (inactive); in the assay on EKVX it was 92.3 µM (inactive); with MDA-N, 34.4 µM (inactive); with OVCAR-4, > 100 µM (inactive). For the same compound, the GI50 with HL-60 was < 0.01 µM (active); in the assay on SF-295, 57.8 µM (inactive); in the assay on OVCAR-8 it was > 100 µM (inactive); in the assay on SF-539 it was > 100 µM (inactive); in the assay on U-251 it was > 100 µM (inactive); in the assay on A498, > 100 µM (inactive). The GI50 in the assay on HCC 2998 is > 100 µM (inactive).
Regarding `Cc1ccc(C2=NOC(=O)[C@@H]3CCCC[C@@H]23)cc1`, the GI50 in the assay with SNB-19, in the assay on MCF7, with Malme-3M, in the assay on HCT-116, in the assay with SF-268 and with OVCAR-3 was > 100 µM (inactive) in each case. Besides, the GI50 is 75.3 µM (inactive) in the assay on MDA-MB-231; > 100 µM (inactive) in the assay with ACHN; > 100 µM (inactive) with SN12C; > 100 µM (inactive) with EKVX; > 100 µM (inactive) in the assay on MDA-N; > 100 µM (inactive) in the assay with OVCAR-4. Moreover, the GI50 in the assay on HL-60, in the assay with SF-295, in the assay on OVCAR-8, with SF-539, with U-251 and in the assay with A498 was > 100 µM (inactive) each time. For the same compound, the GI50 in the assay on HCC 2998 is > 100 µM (inactive).
Consider `CCc1nc(Cl)nc(Cl)c1Cl`, for which the GI50 with SNB-19 was 3.59 µM (inactive); in the assay with MCF7, 0.403 µM (active); with Malme-3M, 0.445 µM (active); in the assay with HCT-116 it was 0.948 µM (active); in the assay with SF-268, 0.54 µM (active); in the assay with OVCAR-3, 0.535 µM (active). The GI50 is 1.63 µM (inactive) in the assay with MDA-MB-231; 0.34 µM (active) in the assay on ACHN; 2.22 µM (inactive) with SN12C; 11.4 µM (inactive) in the assay on EKVX; 1.77 µM (inactive) with MDA-N; 0.553 µM (active) with OVCAR-4. Besides, the GI50 was 1.36 µM (inactive) with HL-60; 8.57 µM (inactive) in the assay on SF-295; 1.04 µM (active) in the assay on OVCAR-8; 3.36 µM (inactive) with SF-539; 1.39 µM (inactive) with U-251; 4.94 µM (inactive) in the assay on A498. The GI50 in the assay with HCC 2998 was 0.706 µM (active).
With `O=C(CC(=O)Nc1ccccc1Cl)NNC(c1cc(/N=N/c2ccc(Br)cc2)ccc1O)P(O)O` (stereo not given), the GI50 is 4.1 µM (inactive) in the assay with SNB-19; 0.791 µM (active) in the assay with MCF7; 3.6 µM (inactive) with Malme-3M; 0.311 µM (active) with HCT-116; 0.679 µM (active) with SF-268; 0.348 µM (active) in the assay with OVCAR-3. Also, the GI50 with MDA-MB-231 is 3.06 µM (inactive); in the assay with ACHN, 0.813 µM (active); in the assay on SN12C, 1.6 µM (inactive); with EKVX it was 4.22 µM (inactive); in the assay on MDA-N, 3.2 µM (inactive); in the assay on OVCAR-4, 2.34 µM (inactive). In addition, the GI50 in the assay with HL-60 was 0.323 µM (active); in the assay with SF-295, 1.67 µM (inactive); in the assay with OVCAR-8 it was 0.525 µM (active); in the assay on SF-539, 0.951 µM (active); in the assay on U-251 it was 1.54 µM (inactive); with A498, 2.27 µM (inactive). Moreover, the GI50 with HCC 2998 was 3.8 µM (inactive).
In the case of `COc1cc(I)c2c3c1OC1C34CCN(C)C(C2)C4=CC(I)C1(OC)OC` (stereo not given), the GI50 in the assay on SNB-19 is 27.4 µM (inactive); in the assay with MCF7 it was 20.7 µM (inactive); in the assay with Malme-3M, 20.7 µM (inactive); with HCT-116, 23.4 µM (inactive); in the assay with SF-268, 25.6 µM (inactive); with OVCAR-3, 19.2 µM (inactive). For the same compound, the GI50 with MDA-MB-231 is 20.1 µM (inactive); in the assay on ACHN it was 27 µM (inactive); in the assay with SN12C, 16.3 µM (inactive); with EKVX, 29.6 µM (inactive); with MDA-N, 19.9 µM (inactive); in the assay with OVCAR-4, 15 µM (inactive). Besides, the GI50 is 17 µM (inactive) with HL-60; 46.2 µM (inactive) with SF-295; 20.1 µM (inactive) with OVCAR-8; 18.1 µM (inactive) with SF-539; 18.3 µM (inactive) in the assay with U-251; 32.2 µM (inactive) in the assay with A498. The GI50 with HCC 2998 was 15.3 µM (inactive).
Take `COc1ccc(Nc2nc3ccccc3nc2C(=O)O)cc1`: the GI50 in the assay with SNB-19 is > 100 µM (inactive); in the assay with MCF7, > 100 µM (inactive); in the assay with Malme-3M, > 100 µM (inactive); with HCT-116, 58.6 µM (inactive); with SF-268 it was 61.1 µM (inactive); in the assay with OVCAR-3 it was 65.9 µM (inactive). Besides, the GI50 with MDA-MB-231 is > 100 µM (inactive); with ACHN it was 55 µM (inactive); with SN12C, 80.2 µM (inactive); with EKVX, 54.5 µM (inactive); in the assay with MDA-N, 92.9 µM (inactive); in the assay on OVCAR-4, > 100 µM (inactive). Also, the GI50 with HL-60 was 63.8 µM (inactive); in the assay with SF-295, 61.7 µM (inactive); in the assay with OVCAR-8 it was 71.3 µM (inactive); in the assay with SF-539 it was > 100 µM (inactive); in the assay with U-251 it was 64.3 µM (inactive); in the assay on A498, > 100 µM (inactive). In addition, in the assay with HCC 2998, the GI50 was 3.46 µM (inactive).
As for `FC(F)(F)c1ccc2c(c1)nc(Cc1ccc(Cl)c(Cl)c1)n2CC1CCCN2CCCCC12` (stereo not given), the GI50 with SNB-19 is 18.9 µM (inactive); in the assay with MCF7, 17.5 µM (inactive); in the assay with Malme-3M it was 13.6 µM (inactive); in the assay on HCT-116, 14.8 µM (inactive); with SF-268 it was 27.8 µM (inactive); with OVCAR-3 it was 20 µM (inactive). Besides, the GI50 was 15.3 µM (inactive) in the assay on MDA-MB-231; 22.8 µM (inactive) in the assay on ACHN; 20.3 µM (inactive) in the assay with SN12C; 21.2 µM (inactive) in the assay with EKVX; 18.2 µM (inactive) with MDA-N; 74.5 µM (inactive) in the assay on OVCAR-4. The GI50 was 17.5 µM (inactive) with HL-60; 22.9 µM (inactive) with SF-295; 35.8 µM (inactive) in the assay on OVCAR-8; 18.9 µM (inactive) with SF-539; 23.1 µM (inactive) in the assay with U-251; 25.4 µM (inactive) with A498. The GI50 with HCC 2998 is 8.95 µM (inactive).
In the case of `COc1c2c(cc3c1C(O)N1CC[C@]34[C@H]3O[C@H]3[C@H](OC)C[C@@H]14)OCO2` (stereo not given in full), the GI50 in the assay with SNB-19 was > 100 µM (inactive); with MCF7, 35 µM (inactive); in the assay on Malme-3M, 71.1 µM (inactive); with HCT-116 it was 75 µM (inactive); with SF-268, > 100 µM (inactive); in the assay with OVCAR-3, 16.4 µM (inactive). Moreover, the GI50 in the assay on MDA-MB-231 was > 100 µM (inactive); with ACHN, > 100 µM (inactive); with SN12C it was > 100 µM (inactive); with EKVX, > 100 µM (inactive); in the assay on MDA-N, 25.3 µM (inactive); in the assay on OVCAR-4 it was > 100 µM (inactive). Moreover, the GI50 was 1.18 µM (inactive) in the assay on HL-60; 27.2 µM (inactive) in the assay with SF-295; > 100 µM (inactive) in the assay on OVCAR-8; > 100 µM (inactive) with SF-539; > 100 µM (inactive) with U-251; 50.5 µM (inactive) with A498. Moreover, in the assay with HCC 2998, the GI50 was > 100 µM (inactive).
On to `O=c1c(Sc2ncccn2)c(Sc2ncccn2)cnn1CCl`, for which the GI50 with SNB-19 is 17 µM (inactive); in the assay with MCF7, 2.88 µM (inactive); with Malme-3M, 2.05 µM (inactive); in the assay with HCT-116, 1.85 µM (inactive); in the assay on SF-268 it was 2.99 µM (inactive); in the assay with OVCAR-3 it was 2.02 µM (inactive). The GI50 was 6.98 µM (inactive) in the assay with MDA-MB-231; 2.21 µM (inactive) in the assay on ACHN; 3.79 µM (inactive) in the assay on SN12C; 2.9 µM (inactive) with EKVX; 2.17 µM (inactive) in the assay on MDA-N; 2.15 µM (inactive) in the assay with OVCAR-4. Besides, the GI50 with HL-60 was 2.04 µM (inactive); with SF-295 it was 15.3 µM (inactive); with OVCAR-8 it was 2.08 µM (inactive); in the assay with SF-539, 1.52 µM (inactive); in the assay with U-251 it was 7.08 µM (inactive); in the assay on A498, 19.1 µM (inactive). The GI50 with HCC 2998 is 10.8 µM (inactive).
`OC(C/C=N/N=C/CC(O)(C(F)(F)Cl)C(F)(F)Cl)(C(F)(F)Cl)C(F)(F)Cl`: the GI50 in the assay with SNB-19, in the assay on MCF7, with Malme-3M, with HCT-116, in the assay on SF-268 and in the assay on OVCAR-3 was > 10 µM (inactive) in each case. For the same compound, the GI50 in the assay on MDA-MB-231, with ACHN, with SN12C, in the assay with EKVX, in the assay with MDA-N and in the assay on OVCAR-4 was > 10 µM (inactive) throughout. Also, the GI50 in the assay with HL-60, in the assay on SF-295, with OVCAR-8, in the assay on SF-539, with U-251 and with A498 was > 10 µM (inactive) in each case. The GI50 in the assay on HCC 2998 was > 10 µM (inactive).
